The source made the active and inactive calls. How the calls were made is not given here.
Each compound was assayed against RanGTP-importin-beta complex (human Ran / KPNB1) (assay: disruptors of RanGTP/KPNB1 binding – biochemical, FRET, CFP/YFP, cell-free homogeneous, confirmation (AID 2823)). Conditions: CFP-Ran/YFP-importin-beta FRET ratio.

SMILES | IC50
CN(C)CCCN(C(=O)c1ccc(Br)s1)c1nc2cc3c(cc2s1)OCCO3 | > 50 µM (inactive)
CCN(CC)c1nc(-c2ccccc2)cc(C(F)(F)F)c1C#N | 7.28 µM
COc1ccccc1C#Cc1ccc2c(=O)c3ccccc3n(C)c2c1 | 0.698 µM
CCOC(=O)C(=O)Nc1cc(C(=O)OC)cc(C(=O)OC)c1 | > 50 µM (inactive)
CCc1ccc(N2C(=O)NC(=O)/C(=C\c3cc(C)n(-c4cc(C(=O)O)cc(C(=O)O)c4)c3C)C2=O)cc1 | > 50 µM (inactive)
Cc1ccc(OCC(=O)NCCNC(=O)c2ccc(C)nc2)cc1 | > 50 µM (inactive)
Oc1c(C(Nc2nc3ccccc3s2)c2ccco2)ccc2cccnc12 (stereo unspecified) | > 50 µM (inactive)
CCC1(C(=O)OC)NC(c2cccc(F)c2)C2C(=O)N(C)C(=O)C21 (stereo unspecified) | > 50 µM (inactive)
COc1ccc(C2c3c(ncn(Cc4ccco4)c3=N)Oc3ccc4ccccc4c32)cc1 (stereo unspecified) | > 50 µM (inactive)
O=c1cc(CN2CCN(S(=O)(=O)c3ccc4c(c3)OCCO4)CC2)c2ccc(O)cc2o1 | 10.9 µM
Cc1cccc(C)c1NC(=O)C1=C(O)c2sccc2N(C)S1(=O)=O | 4.36 µM
CCN(CC)CCCNC(=S)N(Cc1cccs1)Cc1cc2cc3c(cc2[nH]c1=O)OCCO3 | > 50 µM (inactive)
Cc1ccc(CNC(=O)c2cccnc2)cc1 | > 50 µM (inactive)
N#Cc1cc2cc3c(cc2nc1N1CCOCC1)OCO3 | 12.2 µM
COCCN1C=C(C(=O)OC)C(c2cc(Br)c(OC)c(OC)c2)C(C(=O)OC)=C1 | 21.4 µM
COc1ccc(C(=O)Oc2c(CN3CCOCC3)cc(Cl)c3cccnc23)cc1 | > 50 µM (inactive)
CC(OC(=O)CNC(=O)c1cccc(F)c1)C(=O)NC1CCCCC1C (stereo unspecified) | > 50 µM (inactive)
O=[N+]([O-])c1ccc(CNC2CCCc3ccccc32)cc1 (stereo unspecified) | > 50 µM (inactive)
Fc1ccccc1N1CCN(c2nc3ccccc3n3nnnc23)CC1 | 37.8 µM
O=C(CN1CCN(C/C=C/c2ccccc2)CC1)NC(=O)NC1CCCCC1 | > 50 µM (inactive)
COc1ccc(C(=O)Nc2ccc(S(=O)(=O)Nc3onc(C)c3C)cc2)cc1 | > 50 µM (inactive)
O=C(Nc1ccc(OC(F)(F)F)cc1)c1ccc2nc[nH]c2c1 | > 50 µM (inactive)
COc1ccc(C2NCCc3c2[nH]c2ccccc32)cc1COc1ccc(F)cc1 (stereo unspecified) | > 50 µM (inactive)
CNC(=O)c1cc2c(ccc3ccccc32)oc1=N | 5.26 µM
CC(=O)O/N=C/c1c(Cl)n(C)c2ccccc12 | > 50 µM (inactive)
N#CCCN(C(=O)Nc1ccc(Cl)cc1)c1ccccc1 | > 50 µM (inactive)

SMILES | IC50
COc1cc(C(=O)N2CCCN(c3nc4cc(C)ccc4cc3C#N)CC2)cc(OC)c1OC | 10.9 µM
COc1ccccc1C(=O)c1cc2ccc(O)cc2oc1=O | 5.1 µM
Nc1nc2nc(-c3ccc(OCc4ccccc4)cc3)cc(C(F)(F)F)n2n1 | 4.09 µM
OCCNc1nc(-c2ccccc2)nc2ccccc12 | > 50 µM (inactive)
Cc1ccc(Nc2cc(C)nn2-c2nc(C)cc(C)n2)cc1 | > 50 µM (inactive)
COC(=O)c1cc(NC(=O)c2ccc([N+](=O)[O-])cc2)c(=O)oc1C | > 50 µM (inactive)
Cc1ccc(NC(=O)Cn2nc(C(F)(F)F)c3c2CCC3)cc1 | > 50 µM (inactive)
Cc1ccc2cc(C#N)c(N3CCCN(S(=O)(=O)c4ccc(F)cc4)CC3)nc2c1 | 31.6 µM
C=CCn1c(N)c(C(=O)OC(C)CC)c2nc3ccccc3nc21 (stereo unspecified) | 19.8 µM
CC(=O)Oc1cc2oc(=O)cc(C)c2cc1OC(C)=O | 24.7 µM
COC(=O)c1ccc2c(=O)n(CCN3CCOCC3)c(SCC(=O)C(C)(C)C)nc2c1 | > 50 µM (inactive)
Cc1cccc2cc(C#N)c(NCCNC(=S)NCCCN3CCOCC3)nc12 | 39.6 µM
COCc1ccc(CN2CCCC(CO)(Cc3ccccc3C)C2)o1 (stereo unspecified) | > 50 µM (inactive)
CCN1CCc2c(sc(NC(=O)c3ccc(S(=O)(=O)N4CC(C)OC(C)C4)cc3)c2C(N)=O)C1 (stereo unspecified) | > 50 µM (inactive)
Cc1cc(Cl)c(S(=O)(=O)N2CCCC2)cc1OCC(=O)NC1CCCCC1 | > 50 µM (inactive)
CCS(=O)(=O)c1ccc(S(=O)(=O)CC)s1 | > 50 µM (inactive)
CCCCOc1ccc(OCCSc2nc3ccccc3n2CC(=O)O)cc1 | > 50 µM (inactive)
CCOC(=O)c1sc(NC(=O)CSc2nc(C)cc(C)n2)c(C#N)c1C | > 50 µM (inactive)
CCOc1ccc(NS(=O)(=O)c2ccc3c(c2)CCN3C(=O)CCC(=O)O)cc1 | > 50 µM (inactive)
COc1ccc(/C=C2\SC(=S)N(CC(=O)OCC(=O)Nc3ccc(C)cc3Cl)C2=O)cc1 | > 50 µM (inactive)
CCCOc1ccc(C2C(C(=O)OC)=CN(CCOC)C=C2C(=O)OC)cc1 | 12.3 µM
Oc1cccc(Nc2c3ccccc3nc3ccccc23)c1 | > 50 µM (inactive)
CCN(CC)S(=O)(=O)c1ccc2oc(C(=O)NCCCN3CCOCC3)c(C)c2c1 | > 50 µM (inactive)
CN1CCN(c2ccc(S(=O)(=O)N3CCCCC3)cc2NC(=O)Cc2ccc(Cl)cc2)CC1 | > 50 µM (inactive)
Cc1cccn2c(=O)c(/C=C(\C#N)C(N)=O)c(Oc3ccccc3)nc12 | 1.96 µM
